Data published in BindingDB's records for patent US20250171447 (Merck Sharp & Dohme, 2025).

Key:
Adenosine receptor A2a = Adenosine receptor A2a (Homo sapiens, UniProt P29274); assay: A2A Binding Affinity Using SPA
Adenosine receptor A2b = target: T1, Adenosine receptor A2b (Homo sapiens, UniProt P29275); assay: A2B Binding Affinity Assay
T1 sequence (P29275 whole entry): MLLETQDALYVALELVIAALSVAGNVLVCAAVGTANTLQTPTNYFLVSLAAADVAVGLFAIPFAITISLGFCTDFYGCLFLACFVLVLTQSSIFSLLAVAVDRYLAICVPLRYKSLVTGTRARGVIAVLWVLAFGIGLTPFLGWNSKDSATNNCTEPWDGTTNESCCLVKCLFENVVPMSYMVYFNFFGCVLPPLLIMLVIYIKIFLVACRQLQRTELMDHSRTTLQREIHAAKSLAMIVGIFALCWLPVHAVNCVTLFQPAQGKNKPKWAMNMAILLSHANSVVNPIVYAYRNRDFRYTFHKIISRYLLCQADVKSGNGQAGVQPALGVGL

Sequence of Adenosine receptor A2a (P29274 whole entry): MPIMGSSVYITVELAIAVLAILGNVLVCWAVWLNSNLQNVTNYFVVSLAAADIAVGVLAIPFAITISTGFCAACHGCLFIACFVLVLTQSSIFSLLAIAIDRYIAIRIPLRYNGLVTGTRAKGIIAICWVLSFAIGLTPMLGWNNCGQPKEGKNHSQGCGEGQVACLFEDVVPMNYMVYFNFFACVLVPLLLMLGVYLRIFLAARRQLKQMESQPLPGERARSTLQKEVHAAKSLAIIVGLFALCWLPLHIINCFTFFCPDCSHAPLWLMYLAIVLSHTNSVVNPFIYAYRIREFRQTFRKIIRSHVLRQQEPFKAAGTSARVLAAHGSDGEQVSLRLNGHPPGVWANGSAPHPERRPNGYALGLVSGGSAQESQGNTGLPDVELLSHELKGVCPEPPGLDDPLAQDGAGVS

Q: `COc1cc(F)cc2c1nc(N)n1nc(C3CC3(F)c3ccccc3)nc21` (centres undefined) [US20250171447, Ex-29] was tested. Which IC50 (Adenosine receptor A2a) did it give?
A: 3.5 nM

Q: What about the IC50 (Adenosine receptor A2b) of the same compound?
A: 45 nM

Q: Which results are given for `COc1cc(F)cc2c1nc(N)n1nc(C3CC3c3ccc(F)cc3)nc21` (centres undefined) [US20250171447, Ex-31]?
A: IC50 (Adenosine receptor A2a): 44.2 nM; IC50 (Adenosine receptor A2b): 27.3 nM

Q: `COc1cc(F)cc2c1nc(N)n1nc(C3CC3(F)c3ccccc3)nc21` (centres undefined) [US20250171447, Ex-32] was tested. Which IC50 (Adenosine receptor A2a) did it give?
A: 377 nM

Q: And the IC50 (Adenosine receptor A2b)?
A: 601 nM

Q: How did the IC50 (Adenosine receptor A2a) turn out when `COc1cc(F)cc2c1nc(N)n1nc(C3CC3(F)c3ccccc3)nc21` (centres undefined) [US20250171447, Ex-33] was run?
A: 472 nM

Q: What about the IC50 (Adenosine receptor A2b) of the same compound?
A: 62.4 nM

Q: Which results are given for `COc1cccc2c1nc(N)n1nc(C3CC3CO)nc21` (centres undefined) [US20250171447, Ex-35]?
A: IC50 (Adenosine receptor A2a): 7.3 nM; IC50 (Adenosine receptor A2b): 105 nM

Q: `COc1cccc2c1nc(N)n1nc(C3CC3CO)nc21` (centres undefined) [US20250171447, Ex-36] was tested. Which IC50 (Adenosine receptor A2a) did it give?
A: 20.5 nM

Q: What about the IC50 (Adenosine receptor A2b) of the same compound?
A: 805 nM

Q: Which IC50 (Adenosine receptor A2a) does the source give for `COc1cc(F)cc2c1nc(N)n1nc(C3CC3(F)c3ccccc3)nc21` (centres undefined) [US20250171447, Ex-39] here?
A: 0.6 nM

Q: And the IC50 (Adenosine receptor A2b)?
A: 71.9 nM

Q: With `COc1cc(F)cc2c1nc(N)n1nc([C@H]3C[C@H](c4ccc(C(C)(C)O)cn4)C3)nc21` [US20250171447, Ex-44] as the compound, how does the IC50 (Adenosine receptor A2a) read?
A: 2.4 nM

Q: What does the source list for `COc1cc(F)cc2c1nc(N)n1nc([C@H]3C[C@@H](c4ccc(C(C)(C)O)cn4)C3)nc21` [US20250171447, Ex-45]?
A: IC50 (Adenosine receptor A2a): 1.6 nM; IC50 (Adenosine receptor A2b): 6.2 nM

Q: Which IC50 (Adenosine receptor A2a) does the source give for `COc1cccc2c1nc(N)n1nc([C@H]3C[C@H](c4ccc(C(C)(C)O)nc4)C3)nc21` [US20250171447, Ex-53] here?
A: 8.8 nM

Q: What does the source list for `COc1cccc2c1nc(N)n1nc([C@H]3C[C@@H](c4ccc(C(C)(C)O)nc4)C3)nc21` [US20250171447, Ex-54]?
A: IC50 (Adenosine receptor A2a): 1.1 nM; IC50 (Adenosine receptor A2b): 6.9 nM

Q: `COc1ccc2c(c1)nc(N)n1nc([C@H]3C[C@@H](c4ccc(CC(C)(C)O)cn4)C3)nc21` [US20250171447, Ex-55] was tested. Which IC50 (Adenosine receptor A2a) did it give?
A: 15.5 nM

Q: With `COc1ccc2c(c1)nc(N)n1nc([C@H]3C[C@H](c4ccc(CC(C)(C)O)cn4)C3)nc21` [US20250171447, Ex-56] as the compound, how does the IC50 (Adenosine receptor A2a) read?
A: 17.8 nM

Q: Which IC50 (Adenosine receptor A2a) does the source give for `COc1ccc2c(c1)nc(N)n1nc([C@H]3C[C@@H](c4cnc(C(C)(C)O)cn4)C3)nc21` [US20250171447, Ex-57] here?
A: 47.4 nM

Q: `COc1ccc2c(c1)nc(N)n1nc([C@H]3C[C@H](c4cnc(C(C)(C)O)cn4)C3)nc21` [US20250171447, Ex-58] was tested. Which IC50 (Adenosine receptor A2a) did it give?
A: 136 nM

Q: For `COc1ccc2c(c1)nc(N)n1nc([C@H]3C[C@@H](c4ccc(C(C)(C)O)cn4)C3)nc21` [US20250171447, Ex-59], which IC50 (Adenosine receptor A2a) is on record?
A: 5.7 nM

Q: For `COc1ccc2c(c1)nc(N)n1nc([C@H]3C[C@H](c4ccc(C(C)(C)O)cn4)C3)nc21` [US20250171447, Ex-60], which IC50 (Adenosine receptor A2a) is on record?
A: 7.9 nM

Q: How did the IC50 (Adenosine receptor A2a) turn out when `COc1ccc2c(c1)nc(N)n1nc([C@H]3C[C@H](c4ncc(C(C)(C)O)cn4)C3)nc21` [US20250171447, Ex-61] was run?
A: 42.6 nM

Q: With `COc1ccc2c(c1)nc(N)n1nc([C@H]3C[C@@H](c4ncc(C(C)(C)O)cn4)C3)nc21` [US20250171447, Ex-62] as the compound, how does the IC50 (Adenosine receptor A2a) read?
A: 107 nM

Q: Which IC50 (Adenosine receptor A2a) does the source give for `CC(C)(O)c1ccc([C@H]2C[C@@H](c3nc4c5cc(F)cc(F)c5nc(N)n4n3)C2)nc1` [US20250171447, Ex-63] here?
A: 7 nM

Q: What about the IC50 (Adenosine receptor A2b) of the same compound?
A: 0.4 nM

Q: `CC(C)(O)c1ccc([C@H]2C[C@H](c3nc4c5cc(F)cc(F)c5nc(N)n4n3)C2)nc1` [US20250171447, Ex-64] was tested. Which IC50 (Adenosine receptor A2a) did it give?
A: 16 nM

Q: And the IC50 (Adenosine receptor A2b)?
A: 1.7 nM

Q: With `COc1cccc2c1nc(N)n1nc([C@H]3C[C@@H](c4ccc(CC(C)(C)O)cn4)C3)nc21` [US20250171447, Ex-65] as the compound, how does the IC50 (Adenosine receptor A2a) read?
A: 2.1 nM

Q: For `COc1cccc2c1nc(N)n1nc([C@H]3C[C@H](c4ccc(CC(C)(C)O)cn4)C3)nc21` [US20250171447, Ex-66], which IC50 (Adenosine receptor A2a) is on record?
A: 2 nM

Q: With `COc1cccc2c1nc(N)n1nc([C@H]3C[C@H](c4ccc(C(C)(C)N)nc4)C3)nc21` [US20250171447, Ex-84] as the compound, how does the IC50 (Adenosine receptor A2a) read?
A: 8.2 nM

Q: What does the source list for `COc1cccc2c1nc(N)n1nc(C3CC(c4ncc(C(C)(C)N)cc4Cl)C3)nc21` (centres undefined) [US20250171447, Ex-87]?
A: IC50 (Adenosine receptor A2a): 0.8 nM; IC50 (Adenosine receptor A2b): 2.7 nM

Q: For `COc1cccc2c1nc(N)n1nc([C@H]3C[C@H](c4ccc(C5(O)CC(F)(F)C5)cn4)C3)nc21` [US20250171447, Ex-103], which IC50 (Adenosine receptor A2a) is on record?
A: 1.1 nM

Q: For `COc1cccc2c1nc(N)n1nc(C3CC(c4ccc(C5(C#N)CNC5)nc4)C3)nc21` (centres undefined) [US20250171447, Ex-116], which IC50 (Adenosine receptor A2a) is on record?
A: 3.1 nM

Q: Which IC50 (Adenosine receptor A2a) does the source give for `Cc1nc(C(C)(C)N)cnc1[C@H]1C[C@@H](c2nc3c4cccc(Cl)c4nc(N)n3n2)C1` [US20250171447, Ex-128] here?
A: 52 nM

Q: With `Cc1nc(C(C)(C)N)cnc1[C@H]1C[C@H](c2nc3c4cc(F)cc(F)c4nc(N)n3n2)C1` [US20250171447, Ex-129] as the compound, how does the IC50 (Adenosine receptor A2a) read?
A: 4.5 nM

Q: Which IC50 (Adenosine receptor A2a) does the source give for `Cc1nc(C(C)(C)N)cnc1[C@H]1C[C@@H](c2nc3c4cc(F)cc(F)c4nc(N)n3n2)C1` [US20250171447, Ex-130] here?
A: 89.2 nM

Q: For `COc1cc2nc(N)n3nc([C@H]4C[C@H](c5ncc(C(C)(C)N)nc5C)C4)nc3c2cc1F` [US20250171447, Ex-131], which IC50 (Adenosine receptor A2a) is on record?
A: 2.5 nM

Q: Which IC50 (Adenosine receptor A2a) does the source give for `COc1cc2nc(N)n3nc([C@H]4C[C@@H](c5ncc(C(C)(C)N)nc5C)C4)nc3c2cc1F` [US20250171447, Ex-132] here?
A: 37.2 nM
